Counter-ions that a name gives are not always drawn. Like-named read-outs stand apart in the source and are kept apart here.
Experiments:
[1] = tested on: Ixodes ricinus; experiment: Oral acaricidal test on ticks in membrane feeding wells with treated blood; type: in vivo; conditions: for mortality at 1 ppm / mortality at 10 ppm / mortality at 100 ppm: Ixodes ricinus, po
Description: A laboratory study was conducted to determine the oral acaricidal properties of three compounds according to the invention (SN0305, SN0306 and SN0307) against Ixodes ricinus. Each compound was tested at 1, 10 and 100 ppm, and compared to a negative control corresponding to solvent alone (0.1% DMSO). Amitraz at 100 ppm was used as a positive control.
The Ixodes ricinus ticks (nymphs and adults) were placed for 24 hours on a membrane in feeding wells containing blood mixed with the tested compounds. Tick mortality (number of dead, moribund, or unaffected ticks in each well), attachment to the membrane (number of ticks attached/detached in each well), and the behavior (presence or absence of twitches) were examined 1, 3, 6, 12, 24, 48, 72, and 96 hours after the onset of tick exposure to the compounds.
Ticks (Ixodes ricinus) were collected. Collected adult females were kept separate from the nymphs and both were placed in sterile tubes in a humidity chamber to provide ˜80% humidity and 17° C. Only healthy ticks (females/nymphs) were chosen for the experiment.
Batches of 12 adults or nymphs were inserted into the feeding wells. After about 24 hours, their attachment was examined with a brush.
The efficiency of three compounds (SN0305, SN0306 and SN0307), each tested at three concentrations (1, 10, 100 ppm), was compared to the solvent control (0.1% DMSO, Sigma-Aldrich D-5879; Lot 101K0028) and to the positive control (Amitraze at 100 ppm).
Silicone-coated membranes with a thickness comprised between 110 and 140 μm were used for the construction of the feeding units.
Feeding units (sterilized acrylic glass tubes) were placed in feeding wells made of sterilized six-well plates.
3.1 ml of sterile 10^−3 M ATP-enriched blood was applied to each feeding well. Feeding wells were then inserted into a heated water bath (FIG. 12) and maintained at 37° C.±2° C.
Stock solutions of 100,000 ppm were prepared and tenth dilutions were carried out in 0.1% DMSO to reach the desired concentrations. After tick attachment (24 hours after placing the ticks in the feeding wells), 3.1 μl of the solutions were added to each feeding well containing 3.1 ml of blood. Blood was changed after 12 hours with fresh supplementation of the compounds to be tested. The ticks were exposed to the product for a total of 24 hours, after which the blood was again changed to fresh, untreated blood.
Tick mortality (number of dead, moribund or unaffected ticks in each well), attachment (number of attached/detached ticks in each well) and behavior (presence, absence and intensity of convulsions) were examined 1, 3, 6, 12, 24, 48, 72, and 96 hours after the start of tick exposure to the compound.

[2] = tested on: Rhipicephalus sanguineus; experiment: Topical acaricidal test on brown dog ticks; type: in vivo; conditions: 168 h, 0.5 μl per tick, after 7 days of treatment
Description: Brown dog ticks, Rhipicephalus sanguineus, of 2nd stage, from a single cohort were used.
Three (3) compounds were tested, as well as a reference compound (Amitraze). For each compound tested and Amitraz, four doses (1000, 100, 10 and 1 ppm) were applied to the ticks topically. A negative control (acetone) and an untreated group were included for comparison. The experiments were carried out in triplicate.
Ten ticks were placed in a clear plastic container, measuring approximately 120 mm in diameter and 45 mm in height. The ticks were then anesthetized by direct exposure (for 10 seconds) to carbon dioxide. The treatments were then applied to the back (scutum) of each tick, using a Hamilton syringe, up to 0.5 μl of treatment per tick (1 application).
Cotton soaked in water was placed in each container to provide humidity throughout the experiment. The container was also vented throughout the experiment with a tube to introduce air into each container. The containers were maintained at a temperature of 23±3° C. Live, shocked and dead tick counts were taken daily after treatment for 7 days.
The averages in percentage of each evaluation category (healthy, knocked down and dead) were calculated, as well as the standard error. An analysis of variance (ANOVA) was performed using Minitab software, 16th edition.

[3] = adult ticks, 1 h, read-out: average percentage of adult tick mortality (moribund or dead adult ticks)
[4] = adult ticks, 3 h, read-out: average percentage of adult tick mortality (moribund or dead adult ticks)
[5] = adult ticks, 6 h, read-out: average percentage of adult tick mortality (moribund or dead adult ticks)
[6] = adult ticks, 12 h, read-out: average percentage of adult tick mortality (moribund or dead adult ticks)
[7] = adult ticks, 24 h, read-out: average percentage of adult tick mortality (moribund or dead adult ticks)
[8] = adult ticks, 48 h, read-out: average percentage of adult tick mortality (moribund or dead adult ticks)
[9] = adult ticks, 72 h, read-out: average percentage of adult tick mortality (moribund or dead adult ticks)
[10] = adult ticks, 96 h, read-out: average percentage of adult tick mortality (moribund or dead adult ticks)
[11] = nymphs, 1 h, read-out: average percentage of mortality of tick nymphs (moribund or dead nymphs)
[12] = nymphs, 3 h, read-out: average percentage of mortality of tick nymphs (moribund or dead nymphs)
[13] = nymphs, 6 h, read-out: average percentage of mortality of tick nymphs (moribund or dead nymphs)
[14] = nymphs, 12 h, read-out: average percentage of mortality of tick nymphs (moribund or dead nymphs)
[15] = nymphs, 24 h, read-out: average percentage of mortality of tick nymphs (moribund or dead nymphs)
[16] = nymphs, 48 h, read-out: average percentage of mortality of tick nymphs (moribund or dead nymphs)
[17] = nymphs, 72 h, read-out: average percentage of mortality of tick nymphs (moribund or dead nymphs)
[18] = nymphs, 96 h, read-out: average percentage of mortality of tick nymphs (moribund or dead nymphs)

Compound: Cc1cccc(Cc2cnc[nH]2)c1C [Detomidine hydrochloride, 4-[(2,3-dimethylphenyl)-methyl]-3H-imidazole]
- effect in terms of tick detachment (in words) ([1]; 1, 10, 100 ppm, nymphs and adults): very limited effect
- detached adults in a replica ([1]; 1 ppm, adult ticks): 2
- mortality at 1 ppm ([1]; adult ticks, 1 ppm, 1 h, read-out: average percentage of adult tick mortality (moribund or dead adult ticks)): 0%
- mortality at 1 ppm ([1]; adult ticks, 1 ppm, 3 h, read-out: average percentage of adult tick mortality (moribund or dead adult ticks)): 0%
- mortality at 1 ppm ([1]; adult ticks, 1 ppm, 6 h, read-out: average percentage of adult tick mortality (moribund or dead adult ticks)): 2.8%
- mortality at 1 ppm ([1]; adult ticks, 1 ppm, 12 h, read-out: average percentage of adult tick mortality (moribund or dead adult ticks)): 2.8%
- mortality at 1 ppm ([1]; adult ticks, 1 ppm, 24 h, read-out: average percentage of adult tick mortality (moribund or dead adult ticks)): 62.9%
- mortality at 1 ppm ([1]; adult ticks, 1 ppm, 48 h, read-out: average percentage of adult tick mortality (moribund or dead adult ticks)): 88.2%
- mortality at 1 ppm ([1]; adult ticks, 1 ppm, 72 h, read-out: average percentage of adult tick mortality (moribund or dead adult ticks)): 100%
- mortality at 1 ppm ([1]; adult ticks, 1 ppm, 96 h, read-out: average percentage of adult tick mortality (moribund or dead adult ticks)): 100%
- mortality at 10 ppm [1, 3]: 0%
- mortality at 10 ppm [1, 4]: 0%
- mortality at 10 ppm [1, 5]: 8.3%
- mortality at 10 ppm [1, 6]: 8.3%
- mortality at 10 ppm [1, 7]: 52.1%
- mortality at 10 ppm [1, 8]: 96.4%
- mortality at 10 ppm [1, 9]: 100%
- mortality at 10 ppm [1, 10]: 100%
- mortality at 100 ppm [1, 3]: 0%
- mortality at 100 ppm [1, 4]: 0%
- mortality at 100 ppm [1, 5]: 8.8%
- mortality at 100 ppm [1, 6]: 15.4%
- mortality at 100 ppm [1, 7]: 24%
- mortality at 100 ppm [1, 8]: 57.4%
- mortality at 100 ppm [1, 9]: 100%
- mortality at 100 ppm [1, 10]: 100%
- mortality at 1 ppm ([1]; nymphs, 1 ppm, 1 h, read-out: average percentage of mortality of tick nymphs (moribund or dead nymphs)): 0%
- mortality at 1 ppm ([1]; nymphs, 1 ppm, 3 h, read-out: average percentage of mortality of tick nymphs (moribund or dead nymphs)): 0%
- mortality at 1 ppm ([1]; nymphs, 1 ppm, 6 h, read-out: average percentage of mortality of tick nymphs (moribund or dead nymphs)): 14.1%
- mortality at 1 ppm ([1]; nymphs, 1 ppm, 12 h, read-out: average percentage of mortality of tick nymphs (moribund or dead nymphs)): 35.4%
- mortality at 1 ppm ([1]; nymphs, 1 ppm, 24 h, read-out: average percentage of mortality of tick nymphs (moribund or dead nymphs)): 56.4%
- mortality at 1 ppm ([1]; nymphs, 1 ppm, 48 h, read-out: average percentage of mortality of tick nymphs (moribund or dead nymphs)): 97.2%
- mortality at 1 ppm ([1]; nymphs, 1 ppm, 72 h, read-out: average percentage of mortality of tick nymphs (moribund or dead nymphs)): 100%
- mortality at 1 ppm ([1]; nymphs, 1 ppm, 96 h, read-out: average percentage of mortality of tick nymphs (moribund or dead nymphs)): 100%
- mortality at 10 ppm [1, 11]: 0%
- mortality at 10 ppm [1, 12]: 12.7%
- mortality at 10 ppm [1, 13]: 35.5%
- mortality at 10 ppm [1, 14]: 54.7%
- mortality at 10 ppm [1, 15]: 88.1%
- mortality at 10 ppm [1, 16]: 100%
- mortality at 10 ppm [1, 17]: 100%
- mortality at 10 ppm [1, 18]: 100%
- mortality at 100 ppm [1, 11]: 0%
- mortality at 100 ppm [1, 12]: 9.4%
- mortality at 100 ppm [1, 13]: 45.3%
- mortality at 100 ppm [1, 14]: 69.5%
- mortality at 100 ppm [1, 15]: 95.5%
- mortality at 100 ppm [1, 16]: 100%
- mortality at 100 ppm [1, 17]: 100%
- mortality at 100 ppm [1, 18]: 100%
- ticks affected (convulsion, morbidity or death of ticks) ([1]; from 1 hour of exposure, regardless of the concentration tested (1, 10, 100 ppm)): 100%
- mortality at 1 ppm ([2]; 1 ppm topical): 26.7%
- mortality at 10 ppm ([2]; 10 ppm topical): 23.3%
- mortality at 100 ppm ([2]; 100 ppm topical): 50%
- mortality at 1000 ppm ([2]; 1000 ppm topical): 100%

Source: patent publication US12501899B2, “Mite infestation treatment” (priority 2019, dated 2025)
